# In article PMC5218480 (PLoS ONE, 2017):
# System: MV-4-11 cells
# Assay: Gene expression microarray analysis (Affymetrix PrimeView) and GSEA
# Type: cell-based, human
# Parameters: RFU PODN (11730768_x_at) / Fold change /veh PODN (11730768_x_at) / RFU LINC00158 (11744669_a_at) / Fold change /veh LINC00158 (11744669_a_at) / RFU DUSP10 (11751237_a_at) / Fold change /veh DUSP10 (11751237_a_at) / RFU ID3 (11757404_x_at) / Fold change /veh ID3 (11757404_x_at) / RFU PLEKHG5 (11737974_s_at) / Fold change /veh PLEKHG5 (11737974_s_at) / RFU LRRC4B (11730491_at) / Fold change /veh LRRC4B (11730491_at) / RFU GIMAP4 (11747438_a_at) / Fold change /veh GIMAP4 (11747438_a_at) / RFU KRT8 (11758183_x_at) / Fold change /veh KRT8 (11758183_x_at) / RFU CNN1 (11734310_a_at) / Fold change /veh CNN1 (11734310_a_at) / RFU VPS37D (11726825_at) / Fold change /veh VPS37D (11726825_at) / RFU C10orf10 (11716522_x_at) / Fold change /veh C10orf10 (11716522_x_at) / RFU KIR2DL2 /// KIR2DL4 /// KIR2DL5A /// KIR2DL5B /// KIR2DS1 /// KIR2DS2 /// KIR2DS3 /// KIR2DS4 /// KIR3DL3 /// KIR3DL3 /// KIR3DS1 (11738374_at) / Fold change /veh KIR2DL2 /// KIR2DL4 /// KIR2DL5A /// KIR2DL5B /// KIR2DS1 /// KIR2DS2 /// KIR2DS3 /// KIR2DS4 /// KIR3DL3 /// KIR3DL3 /// KIR3DS1 (11738374_at) / RFU C1QL1 (11718748_at) / Fold change /veh C1QL1 (11718748_at) / RFU TMPRSS4 (11747572_a_at) / Fold change /veh TMPRSS4 (11747572_a_at) / RFU HAMP (11756126_x_at) / Fold change /veh HAMP (11756126_x_at) / RFU RNFT2 (11725882_a_at) / Fold change /veh RNFT2 (11725882_a_at) / RFU NR4A2 (11747474_a_at) / Fold change /veh NR4A2 (11747474_a_at) / RFU ABCC12 (11746883_a_at) / Fold change /veh ABCC12 (11746883_a_at) / RFU TMEM136 (11760407_x_at) / Fold change /veh TMEM136 (11760407_x_at) / RFU CLDN22 /// WWC2 (11732394_at) / Fold change /veh CLDN22 /// WWC2 (11732394_at) / RFU HLA-DPB1 (11760878_x_at) / Fold change /veh HLA-DPB1 (11760878_x_at) / RFU SPINT1 (11716480_a_at) / Fold change /veh SPINT1 (11716480_a_at) / RFU GAP43 (11754022_s_at) / Fold change /veh GAP43 (11754022_s_at) / RFU A4GNT (11735810_at) / Fold change /veh A4GNT (11735810_at) / RFU PRB3 (11715151_x_at) / Fold change /veh PRB3 (11715151_x_at) / RFU TUBB4B (11761932_at) / Fold change /veh TUBB4B (11761932_at) / RFU CAPN14 (11732068_a_at) / Fold change /veh CAPN14 (11732068_a_at) / RFU TMCC2 (11721928_a_at) / Fold change /veh TMCC2 (11721928_a_at) / RFU IRGQ (11745062_a_at) / Fold change /veh IRGQ (11745062_a_at) / RFU FAM174B (11720279_a_at) / Fold change /veh FAM174B (11720279_a_at) / RFU TMPRSS4 (11748680_a_at) / Fold change /veh TMPRSS4 (11748680_a_at) / RFU FAM212B (11763350_a_at) / Fold change /veh FAM212B (11763350_a_at) / RFU PLEKHG5 (11743358_a_at) / Fold change /veh PLEKHG5 (11743358_a_at) / RFU ZSCAN30 (11745921_a_at) / Fold change /veh ZSCAN30 (11745921_a_at) / RFU CMKLR1 (11741424_a_at) / Fold change /veh CMKLR1 (11741424_a_at) / RFU LOC101060620 /// MAPK8IP1 (11723275_at) / Fold change /veh LOC101060620 /// MAPK8IP1 (11723275_at) / RFU SPTSSB (11747773_x_at) / Fold change /veh SPTSSB (11747773_x_at) / RFU PRSS12 (11739890_at) / Fold change /veh PRSS12 (11739890_at) / RFU BIN1 (11741810_x_at) / Fold change /veh BIN1 (11741810_x_at) / RFU WNT11 (11732464_a_at) / Fold change /veh WNT11 (11732464_a_at) / RFU C10orf10 (11716521_a_at) / Fold change /veh C10orf10 (11716521_a_at) / RFU C5orf56 (11738089_at) / Fold change /veh C5orf56 (11738089_at) / RFU CYB561 (11721691_x_at) / Fold change /veh CYB561 (11721691_x_at) / RFU ANKRD19P (11752326_a_at) / Fold change /veh ANKRD19P (11752326_a_at) / RFU OR2T12 /// OR2T33 /// OR2T8 (11738714_s_at) / Fold change /veh OR2T12 /// OR2T33 /// OR2T8 (11738714_s_at) / RFU VCAN (11748164_a_at) / Fold change /veh VCAN (11748164_a_at) / RFU JSRP1 (11732532_at) / Fold change /veh JSRP1 (11732532_at) / RFU KRTAP10-11 (11738290_x_at) / Fold change /veh KRTAP10-11 (11738290_x_at) / RFU MYO3A (11730013_a_at) / Fold change /veh MYO3A (11730013_a_at) / RFU EBF3 (11725865_a_at) / Fold change /veh EBF3 (11725865_a_at) / RFU CAMK2N1 (11719241_x_at) / Fold change /veh CAMK2N1 (11719241_x_at) / RFU C5orf56 (11738088_a_at) / Fold change /veh C5orf56 (11738088_a_at) / RFU OLFML3 (11715873_a_at) / Fold change /veh OLFML3 (11715873_a_at) / RFU LOC100653217 /// NTM (11731650_a_at) / Fold change /veh LOC100653217 /// NTM (11731650_a_at) / RFU MAPK11 (11762145_a_at) / Fold change /veh MAPK11 (11762145_a_at) / RFU FIZ1 (11724087_x_at) / Fold change /veh FIZ1 (11724087_x_at) / RFU OASL (11726364_x_at) / Fold change /veh OASL (11726364_x_at) / RFU SOX15 (11748057_x_at) / Fold change /veh SOX15 (11748057_x_at) / RFU CD79A (11719716_a_at) / Fold change /veh CD79A (11719716_a_at) / RFU HIST1H1D (11736915_at) / Fold change /veh HIST1H1D (11736915_at) / RFU CASKIN2 (11723855_a_at) / Fold change /veh CASKIN2 (11723855_a_at) / RFU LOC730098 (11760151_x_at) / Fold change /veh LOC730098 (11760151_x_at) / RFU OR4N2 (11742367_at) / Fold change /veh OR4N2 (11742367_at) / RFU PRRT2 (11749266_a_at) / Fold change /veh PRRT2 (11749266_a_at) / RFU SNX32 (11753110_a_at) / Fold change /veh SNX32 (11753110_a_at) / RFU CDHR5 (11726645_a_at) / Fold change /veh CDHR5 (11726645_a_at) / RFU RCAN1 (11760418_a_at) / Fold change /veh RCAN1 (11760418_a_at) / RFU FAM167A (11723789_a_at) / Fold change /veh FAM167A (11723789_a_at) / RFU FAM26E (11764081_at) / Fold change /veh FAM26E (11764081_at) / RFU ISYNA1 (11749810_s_at) / Fold change /veh ISYNA1 (11749810_s_at) / RFU ACY1 (11761880_at) / Fold change /veh ACY1 (11761880_at) / RFU 11764098_at / Fold change /veh 11764098_at / RFU SAMD14 (11745864_x_at) / Fold change /veh SAMD14 (11745864_x_at) / RFU NPB (11741838_a_at) / Fold change /veh NPB (11741838_a_at) / RFU TMPRSS6 (11731388_a_at) / Fold change /veh TMPRSS6 (11731388_a_at) / RFU KRTAP10-2 (11738614_at) / Fold change /veh KRTAP10-2 (11738614_at) / RFU ARHGAP8 /// PRR5-ARHGAP8 (11727945_x_at) / Fold change /veh ARHGAP8 /// PRR5-ARHGAP8 (11727945_x_at) / RFU KRTAP5-7 /// NADSYN1 (11734609_at) / Fold change /veh KRTAP5-7 /// NADSYN1 (11734609_at) / RFU RASL12 (11751679_a_at) / Fold change /veh RASL12 (11751679_a_at) / RFU CDKN2B (11736163_a_at) / Fold change /veh CDKN2B (11736163_a_at) / RFU PRF1 (11729649_at) / Fold change /veh PRF1 (11729649_at) / RFU, ZNF638 /// ZNF638-IT1 / Fold change vs veh, ZNF638 /// ZNF638-IT1 / RFU, PANK3 / Fold change vs veh, PANK3 / RFU, SH3YL1 / Fold change vs veh, SH3YL1 / RFU, ZEB2 / Fold change vs veh, ZEB2 / RFU, NRIP1 / Fold change vs veh, NRIP1 / RFU, PTTG1IP / Fold change vs veh, PTTG1IP / RFU, CAPN2 / Fold change vs veh, CAPN2 / RFU, MED14 / Fold change vs veh, MED14 / RFU, SNORA58 / Fold change vs veh, SNORA58 / RFU, C1orf63 / Fold change vs veh, C1orf63 / RFU, LRRFIP1 / Fold change vs veh, LRRFIP1 / RFU, NDUFAF7 / Fold change vs veh, NDUFAF7 / RFU, SLC12A2 / Fold change vs veh, SLC12A2 / RFU, IBTK / Fold change vs veh, IBTK / RFU, ESF1 / Fold change vs veh, ESF1 / Fold change vs veh, TMEM50B / RFU, TAOK1 / Fold change vs veh, TAOK1 / RFU, ACBD3 / Fold change vs veh, ACBD3 / RFU, TMA16 / Fold change vs veh, TMA16 / RFU, RWDD3 / Fold change vs veh, RWDD3 / RFU, BCAT1 / Fold change vs veh, BCAT1 / RFU, EDEM3 / Fold change vs veh, EDEM3 / RFU, TMEM33 / Fold change vs veh, TMEM33 / RFU, WDR75 / Fold change vs veh, WDR75 / RFU, AHCTF1 / Fold change vs veh, AHCTF1 / RFU, TFRC / Fold change vs veh, TFRC / RFU, ZDHHC17 / Fold change vs veh, ZDHHC17 / RFU, NOM1 / Fold change vs veh, NOM1 / RFU, ARL8B / Fold change vs veh, ARL8B / RFU, ZBTB11 / Fold change vs veh, ZBTB11 / RFU, TAMM41 / Fold change vs veh, TAMM41 / RFU, KIAA1704 /// LOC100996395 / Fold change vs veh, KIAA1704 /// LOC100996395 / RFU, ING1 / Fold change vs veh, ING1 / RFU, TRMT61B / Fold change vs veh, TRMT61B / RFU, FUBP3 / Fold change vs veh, FUBP3 / RFU, TP53 / Fold change vs veh, TP53 / RFU, TNKS2 / Fold change vs veh, TNKS2 / RFU, ZFP14 / Fold change vs veh, ZFP14 / RFU, ACTR2 / Fold change vs veh, ACTR2 / RFU, PPP3R1 / Fold change vs veh, PPP3R1 / RFU, PIK3R1 / Fold change vs veh, PIK3R1 / RFU, HNRNPA1 / Fold change vs veh, HNRNPA1 / RFU, RNF170 / Fold change vs veh, RNF170 / RFU, ZNF28 / Fold change vs veh, ZNF28 / RFU, RNGTT / Fold change vs veh, RNGTT / RFU, OGT / Fold change vs veh, OGT / RFU, BRD1 / Fold change vs veh, BRD1 / RFU, MARS / Fold change vs veh, MARS / RFU, ZNF655 / Fold change vs veh, ZNF655 / RFU, FAHD1 / Fold change vs veh, FAHD1 / RFU, BDP1 / Fold change vs veh, BDP1 / RFU, LRRCC1 / Fold change vs veh, LRRCC1 / RFU, ARID1A / Fold change vs veh, ARID1A / RFU, ZNF146 / Fold change vs veh, ZNF146 / RFU, ZNF330 / Fold change vs veh, ZNF330 / RFU, GPN3 / Fold change vs veh, GPN3 / RFU, C9orf123 / Fold change vs veh, C9orf123 / RFU, N4BP2L2 / Fold change vs veh, N4BP2L2 / RFU, ARFIP1 / Fold change vs veh, ARFIP1 / RFU, FAM179B / Fold change vs veh, FAM179B / RFU, BCL10 / Fold change vs veh, BCL10 / RFU, UHRF1BP1L / Fold change vs veh, UHRF1BP1L / RFU, BET1 / Fold change vs veh, BET1 / RFU, CNOT2 / Fold change vs veh, CNOT2 / RFU, ZNF268 / Fold change vs veh, ZNF268 / Fold change vs veh, ZNF507 / RFU, DGCR2 / Fold change vs veh, DGCR2 / RFU, WDSUB1 / Fold change vs veh, WDSUB1 / Fold change vs veh, HSP90B1 /// MIR3652 / RFU, ADSS / Fold change vs veh, ADSS / RFU, GK / Fold change vs veh, GK / RFU, ZNF148 / Fold change vs veh, ZNF148 / RFU, TAF9 / Fold change vs veh, TAF9 / RFU, SLC1A5 / Fold change vs veh, SLC1A5 / RFU, SLMO2 / Fold change vs veh, SLMO2 / RFU, ABCC4 / Fold change vs veh, ABCC4 / RFU, LOC101060439 /// RAP1B / Fold change vs veh, LOC101060439 /// RAP1B / RFU, RFX7 / Fold change vs veh, RFX7 / RFU, GTPBP10 / Fold change vs veh, GTPBP10 / RFU, CNEP1R1 / Fold change vs veh, CNEP1R1 / RFU, BIVM-ERCC5 /// ERCC5 / Fold change vs veh, BIVM-ERCC5 /// ERCC5 / RFU, ILF3 / Fold change vs veh, ILF3 / RFU 11762660_at / Fold change /veh 11762660_at / RFU VCAN (11757783_s_at) / Fold change /veh VCAN (11757783_s_at) / RFU DDX43 (11728927_at) / Fold change /veh DDX43 (11728927_at) / RFU KRT8 (11758188_x_at) / Fold change /veh KRT8 (11758188_x_at) / RFU NKD1 (11759106_at) / Fold change /veh NKD1 (11759106_at) / RFU SRD5A1 (11742802_a_at) / Fold change /veh SRD5A1 (11742802_a_at) / RFU TPSAB1 /// TPSB2 (11721975_s_at) / Fold change /veh TPSAB1 /// TPSB2 (11721975_s_at) / RFU GSTM3 (11746129_a_at) / Fold change /veh GSTM3 (11746129_a_at) / RFU IL23R (11737362_x_at) / Fold change /veh IL23R (11737362_x_at) / RFU TMEM51 (11727254_a_at) / Fold change /veh TMEM51 (11727254_a_at) / RFU PIWIL2 (11732686_x_at) / Fold change /veh PIWIL2 (11732686_x_at) / RFU ORM1 (11744905_x_at) / Fold change /veh ORM1 (11744905_x_at) / RFU CCDC152 (11743942_at) / Fold change /veh CCDC152 (11743942_at) / RFU ECM1 (11717891_a_at) / Fold change /veh ECM1 (11717891_a_at) / RFU IL23R (11748794_a_at) / Fold change /veh IL23R (11748794_a_at) / RFU TNFAIP8L3 (11732012_x_at) / Fold change /veh TNFAIP8L3 (11732012_x_at) / RFU MBOAT4 (11741988_at) / Fold change /veh MBOAT4 (11741988_at) / RFU 11764193_at / Fold change /veh 11764193_at / RFU TMEM53 (11763286_at) / Fold change /veh TMEM53 (11763286_at) / RFU MAGEB2 (11727129_at) / Fold change /veh MAGEB2 (11727129_at) / RFU TMEM200A (11744735_a_at) / Fold change /veh TMEM200A (11744735_a_at) / RFU CCDC152 (11751479_a_at) / Fold change /veh CCDC152 (11751479_a_at) / RFU FAM211A (11726209_a_at) / Fold change /veh FAM211A (11726209_a_at) / RFU RGS16 (11746705_a_at) / Fold change /veh RGS16 (11746705_a_at) / RFU VCAN (11755009_s_at) / Fold change /veh VCAN (11755009_s_at) / RFU RHOB (11743442_s_at) / Fold change /veh RHOB (11743442_s_at) / RFU RGS16 (11720943_a_at) / Fold change /veh RGS16 (11720943_a_at) / RFU RGS16 (11720944_at) / Fold change /veh RGS16 (11720944_at) / RFU, VPS4B / Fold change vs veh, VPS4B / RFU, CREB1 / Fold change vs veh, CREB1 / RFU, DNAJC13 / Fold change vs veh, DNAJC13 / RFU, GNAQ / Fold change vs veh, GNAQ / RFU, CDK5R1 / Fold change vs veh, CDK5R1 / RFU, ZRANB3 / Fold change vs veh, ZRANB3 / RFU, CUL4A / Fold change vs veh, CUL4A / RFU, CCNY / Fold change vs veh, CCNY / RFU, UFL1 / Fold change vs veh, UFL1 / RFU, COG3 / Fold change vs veh, COG3 / RFU, DIAPH2 / Fold change vs veh, DIAPH2 / RFU, SKA2 / Fold change vs veh, SKA2 / RFU, AFF3 / Fold change vs veh, AFF3 / RFU, LMF1 / Fold change vs veh, LMF1 / RFU, IPO11 / Fold change vs veh, IPO11 / RFU, DFFB / Fold change vs veh, DFFB / RFU, FOXP1 / Fold change vs veh, FOXP1 / RFU, CARD8 / Fold change vs veh, CARD8 / RFU, STRN3 / Fold change vs veh, STRN3 / RFU, ADK / Fold change vs veh, ADK / RFU, RASSF2 / Fold change vs veh, RASSF2 / RFU, WIPF1 / Fold change vs veh, WIPF1 / RFU, LARP1B / Fold change vs veh, LARP1B / RFU, RASA1 / Fold change vs veh, RASA1 / RFU, RB1 / Fold change vs veh, RB1 / RFU, PPFIA1 / Fold change vs veh, PPFIA1 / RFU, MAT2A / Fold change vs veh, MAT2A / RFU, CCT5 / Fold change vs veh, CCT5 / RFU, WDR92 / Fold change vs veh, WDR92 / RFU, CUX1 / Fold change vs veh, CUX1 / RFU, TTC7A / Fold change vs veh, TTC7A / RFU, TMEM135 / Fold change vs veh, TMEM135 / RFU, DEPTOR / Fold change vs veh, DEPTOR / RFU, CPM / Fold change vs veh, CPM / RFU, DNAJB6 / Fold change vs veh, DNAJB6 / RFU, CACNA2D3 / Fold change vs veh, CACNA2D3 / RFU, DTX4 / Fold change vs veh, DTX4 / RFU, TFCP2 / Fold change vs veh, TFCP2 / RFU, GMCL1 /// GMCL1P1 / Fold change vs veh, GMCL1 /// GMCL1P1 / RFU, AEBP2 / Fold change vs veh, AEBP2 / RFU, SNHG1 /// SNORD22 /// SNORD25 /// SNORD26 /// SNORD27 /// SNORD28 /// SNORD29 /// SNORD31 / Fold change vs veh, SNHG1 /// SNORD22 /// SNORD25 /// SNORD26 /// SNORD27 /// SNORD28 /// SNORD29 /// SNORD31 / Fold change (Aza/veh), C12orf56 (ProbeSet 11735607_a_at) / Fold change (ACY-1035/veh), C12orf56 (ProbeSet 11735607_a_at) / Fold change (Aza/veh), FGFR1OP (ProbeSet 11751329_s_at) / Fold change (ACY-1035/veh), FGFR1OP (ProbeSet 11751329_s_at) / Fold change (Aza/veh), VPS36 (ProbeSet 11739960_a_at) / Fold change (ACY-1035/veh), VPS36 (ProbeSet 11739960_a_at) / RFU SYPL1 (11715823_x_at) / Fold change /veh SYPL1 (11715823_x_at) / RFU IGFBP7 (11715501_s_at) / Fold change /veh IGFBP7 (11715501_s_at) / RFU REEP3 (11722064_at) / Fold change /veh REEP3 (11722064_at) / RFU IGLL1 (11728026_x_at) / Fold change /veh IGLL1 (11728026_x_at): dose or concentration left out as unconfirmed
# Conditions: ProbeSet 11725141_a_at; LIST B
compound,measurement,value
Nc1ncn([C@@H]2O[C@H](CO)[C@@H](O)[C@H]2O)c(=O)n1 [azacitidine],"RFU, FUBP3",470.91 RFU
